Assay results reported in article PMC11019550, “Potent Inhibition of E. coli DXP Synthase by a gem-Diaryl Bisubstrate Analog” (ACS Infectious Diseases, 2024).

Assays:
Format in all cases: biochemical
[1] = tested on: porcine pyruvate dehydrogenase (PDH) E1 subunit; assay: Inhibition of porcine pyruvate dehydrogenase (PDH)
Source text: As noted, DXPS has a large active site and follows a mechanism requiring ternary complex formation, distinct from other ThDP-dependent pyruvate decarboxylases. We hypothesized that the sterically demanding scaffold of 8, predicted to engage both substrate binding sites, should display selectivity for DXPS. In a preliminary assessment, we tested 8 as an inhibitor of porcine pyruvate dehydrogenase (PDH) E1 subunit. […] For comparison, the selectivity ratio for 1 was estimated to be >15,000-fold for DXPS over porcine PDH.
Figure S5. Evaluation of inhibitory activity of 8 against mammalian porcine pyruvate dehydrogenase (PDH). Porcine PDH (0.01 U/mL) and inhibitor (8 or MAP positive control) were preincubated for 10 minutes at 25 °C in enzyme buffer (2 mM MgCl2, 5 mM L-cysteine, 1 mM ThDP, 300 μM TCEP, 100 mM HEPES pH 8, 2.5 mM NAD +, and 100 μM coenzyme A). The reaction was initiated by addition of pyruvate (60 μM). The change in absorbance at 340 nm over time was measured and used to calculate the initial rate of NADH formation. The % activity of PDH in the presence of 8 or MAP was plotted using GraphPad Prism version 9. There is 21% inhibition of PDH activity observed in the presence of compound 8 at a concentration of 1 mM.
Experiments were performed in triplicate. Error bars represent standard error.
Figure S6. Replicate progress curves for DXP formation in the presence or absence of inhibitors 8 or 10 with EcDXPS. A) Progress curves for formation of DXP in the presence of 8 display time-dependence of inhibition. B) Progress curves for formation of DXP in the presence of descarboxyl […]

[2] = target: T1, WT EcDXPS (Escherichia coli, UniProt P77488); assay: Time-dependent inhibition, reaction progress curves on WT EcDXPS; conditions: 8 at 400 or 800 nM, 10 at 1 or 100 μM
T1 construct: made in house
Protocol: To determine if 8 is also a slow-onset inhibitor of DXPS, reaction progress was monitored upon simultaneous addition of substrates (pyruvate and D-GAP) in the presence or absence of inhibitor. In the absence of inhibitor, the reaction progress curve is linear. […] To assess the importance of the carboxyl group of 8, we evaluated descarboxy analog 10 in the same manner.
EcDXPS (100 nM) and IspC (2 μM) were preincubated in enzyme reaction buffer (100 mM HEPES pH 8, 2 mM MgCl2, 5 mM NaCl, 1 mM ThDP, and 200 μM NADPH) with 250 μM D-GAP for 10 min at 25 °C. The reaction was initiated by the addition of pyruvate (1 mM) and inhibitor (400 nM and 800 nM 8; 1 μM and 100 μM 10). The reaction mixture was incubated at 25 °C, and the absorbance of NADPH at 340 nm was monitored. The change in the absorbance of NADPH over time was used to calculate [DXP] (μM) produced over time. Experiments were performed in triplicate.

[3] = target: T2, wildtype EcDXPS (Escherichia coli, UniProt P77488); assay: IC50 determination for 8 on wildtype EcDXPS (DXPS-IspC coupled assay)
T2 construct: made in house
Protocol: EcDXPS and IspC were preincubated with inhibitor for 10 min at 25 °C in assay reaction buffer (100 mM HEPES pH 8, 2 mM MgCl2, 5 mM NaCl, 1 mM ThDP, and 200 μM NADPH). Enzyme concentrations for variants were as follows: 200 nM DXPS (wildtype EcDXPS) and 4 μM IspC; 400 nM DXPS (R99A and R478A EcDXPS) and 6 μM IspC. The reaction was initiated by the addition of substrates at final concentrations of 2 × Km pyruvate and 10 × KmD-GAP. NADPH consumption was monitored at 340 nm for 10 min at 25 °C. The initial rate of NADPH consumption was used to determine the initial rate of DXP formation catalyzed by DXPS. Experiments were performed in triplicate and error bars represented standard error.

T2 sequence (P77488 whole entry): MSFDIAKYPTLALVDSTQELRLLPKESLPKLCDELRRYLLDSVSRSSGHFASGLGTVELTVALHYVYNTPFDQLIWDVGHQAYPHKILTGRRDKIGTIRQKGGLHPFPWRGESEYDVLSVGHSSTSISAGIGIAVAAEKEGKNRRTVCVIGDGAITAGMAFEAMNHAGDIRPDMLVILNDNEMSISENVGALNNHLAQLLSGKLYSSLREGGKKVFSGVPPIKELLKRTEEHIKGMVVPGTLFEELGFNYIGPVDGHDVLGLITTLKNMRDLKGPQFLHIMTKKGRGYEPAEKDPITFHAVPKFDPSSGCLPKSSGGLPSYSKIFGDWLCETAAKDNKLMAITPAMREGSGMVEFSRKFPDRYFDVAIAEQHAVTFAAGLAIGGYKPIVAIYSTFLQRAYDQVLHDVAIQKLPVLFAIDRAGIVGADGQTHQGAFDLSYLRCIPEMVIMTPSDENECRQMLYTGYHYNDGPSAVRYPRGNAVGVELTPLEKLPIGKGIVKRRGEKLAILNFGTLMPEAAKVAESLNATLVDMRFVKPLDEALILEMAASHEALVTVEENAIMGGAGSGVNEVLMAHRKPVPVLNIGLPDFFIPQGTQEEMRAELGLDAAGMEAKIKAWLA
T1 sequence (P77488 whole entry): as above

With `CC(=O)P(=O)(O)OCCc1cn(C(Cc2ccccc2)(Cc2ccccc2)C(=O)O)nn1` [Compound 8] the “estimated selectivity ratio for DXPS over porcine PDH” value ([1]; DXPS over porcine PDH) was > 64,000 fold, the “inhibition of PDH” value ([1]; at a concentration of 1 mM, 60 μM pyruvate, 10 min preincubation) was 21% and the “time dependence of inhibition (progress curve for DXP formation)” value [2] was “time dependence of inhibition”. For the same molecule, the IC50 [3] was no more than 72 nM and the “concentration required for 21% inhibition of DXPS” value ([3]; 2 × Km pyruvate) was “less than 15.6 nM”.
